Two molecules from ChEMBL document CHEMBL5303573, “Mapping human microbiome drug metabolism by gut bacteria and their genes” (Nature, 2019) can be followed below.

Structures are written as SMILES.

The first series in a line: The drug is tested on Enterobacter cancerogenus strain: ATCC35316 for biotransformation. The drug concentrations were measured before and after a 12-h incubation by liquid-chromatography-coupled mass spectrometry (LC–MS). The settings on record: 2 µM.
Take `COc1cc2nc(N3CCN(C(=O)C4COc5ccccc5O4)CC3)nc(N)c2cc1OC.CS(=O)(=O)O` (stereo not given) [DOXAZOSIN MESYLATE]: the “Bacterial Biotransformation” value is given as “Compound NOT metabolized”.
Same read-out and setting: to `N#Cc1ccc(C(c2ccc(C#N)cc2)n2cncn2)cc1` [LETROZOLE] belongs “Compound NOT metabolized”.

The conditions of the next series: enterocloster bolteae, 12 h, 2 µM.
Description: The drug is tested on Clostridium bolteae strain: ATCCBAA-613 for biotransformation. The drug concentrations were measured before and after a 12-h incubation by liquid-chromatography-coupled mass spectrometry (LC–MS)
On to `N#Cc1ccc(C(c2ccc(C#N)cc2)n2cncn2)cc1` [LETROZOLE], for which the “Bacterial Biotransformation” value is “Compound NOT metabolized”.

Another series can be described thus: The drug is tested on Dorea formicigenerans strain: ATCC27755 for biotransformation. The drug concentrations were measured before and after a 12-h incubation by liquid-chromatography-coupled mass spectrometry (LC–MS). To be noted: 2 µM.
In the case of `COc1cc2nc(N3CCN(C(=O)C4COc5ccccc5O4)CC3)nc(N)c2cc1OC.CS(=O)(=O)O` (stereo not given) [DOXAZOSIN MESYLATE], the “Bacterial Biotransformation” value is “Compound NOT metabolized”.
On the same count and under the same terms, under `N#Cc1ccc(C(c2ccc(C#N)cc2)n2cncn2)cc1` [LETROZOLE] stands “Compound NOT metabolized”.

The next series in a line: The drug is tested on Clostridium symbiosum strain: ATCC14940 for biotransformation. The drug concentrations were measured before and after a 12-h incubation by liquid-chromatography-coupled mass spectrometry (LC–MS). The settings on record: 2 µM.
In the case of `COc1cc2nc(N3CCN(C(=O)C4COc5ccccc5O4)CC3)nc(N)c2cc1OC.CS(=O)(=O)O` (stereo not given) [DOXAZOSIN MESYLATE], the “Bacterial Biotransformation” value was “Compound NOT metabolized”.
For the molecule `N#Cc1ccc(C(c2ccc(C#N)cc2)n2cncn2)cc1` [LETROZOLE], the “Bacterial Biotransformation” value is given as “Compound NOT metabolized”.

The nature of another series: The drug is tested on Ruminococcus torques strain: ATCC27756 for biotransformation. The drug concentrations were measured before and after a 12-h incubation by liquid-chromatography-coupled mass spectrometry (LC–MS). In kind it is ADME. Details: dose 2 uM, timepoint 0 vs 12 hours. The settings on record: 2 µM.
`COc1cc2nc(N3CCN(C(=O)C4COc5ccccc5O4)CC3)nc(N)c2cc1OC.CS(=O)(=O)O` (stereo not given) [DOXAZOSIN MESYLATE]: the “Bacterial Biotransformation” value is “Compound NOT metabolized”.
In the case of `N#Cc1ccc(C(c2ccc(C#N)cc2)n2cncn2)cc1` [LETROZOLE], the “Bacterial Biotransformation” value is “Compound NOT metabolized”.

A short description of a further series: The drug is tested on Collinsella intestinalis strain: DSM13280 for biotransformation. The drug concentrations were measured before and after a 12-h incubation by liquid-chromatography-coupled mass spectrometry (LC–MS). The settings on record: 2 µM.
Consider `COc1cc2nc(N3CCN(C(=O)C4COc5ccccc5O4)CC3)nc(N)c2cc1OC.CS(=O)(=O)O` (stereo not given) [DOXAZOSIN MESYLATE], for which the “Bacterial Biotransformation” value is on record as “Compound NOT metabolized”.
`N#Cc1ccc(C(c2ccc(C#N)cc2)n2cncn2)cc1` [LETROZOLE]: the “Bacterial Biotransformation” value is on record as “Compound NOT metabolized”.

The nature of the next series: The drug is tested on Bacteroides coprophilus strain: DSM18228 for biotransformation. The drug concentrations were measured before and after a 12-h incubation by liquid-chromatography-coupled mass spectrometry (LC–MS). The settings on record: 2 µM.
Regarding `COc1cc2nc(N3CCN(C(=O)C4COc5ccccc5O4)CC3)nc(N)c2cc1OC.CS(=O)(=O)O` (stereo not given) [DOXAZOSIN MESYLATE], the “Bacterial Biotransformation” value is listed as “Compound NOT metabolized”.
Take `N#Cc1ccc(C(c2ccc(C#N)cc2)n2cncn2)cc1` [LETROZOLE]: the “Bacterial Biotransformation” value is on record as “Compound NOT metabolized”.

The nature of a further series: The drug is tested on Coprococcus comes strain: ATCC27758 for biotransformation. The drug concentrations were measured before and after a 12-h incubation by liquid-chromatography-coupled mass spectrometry (LC–MS). It counts as ADME. The arrangement: dose 2 uM, timepoint 0 vs 12 hours. The settings on record: 2 µM.
Take `COc1cc2nc(N3CCN(C(=O)C4COc5ccccc5O4)CC3)nc(N)c2cc1OC.CS(=O)(=O)O` (stereo not given) [DOXAZOSIN MESYLATE]: the “Bacterial Biotransformation” value was “Compound NOT metabolized”.
Same read-out and setting: under `N#Cc1ccc(C(c2ccc(C#N)cc2)n2cncn2)cc1` [LETROZOLE] stands “Compound NOT metabolized”.

The nature of the next series: The drug is tested on Parabacteroides merdae strain: ATCC43184 for biotransformation. The drug concentrations were measured before and after a 12-h incubation by liquid-chromatography-coupled mass spectrometry (LC–MS). To be noted: 2 µM.
For `COc1cc2nc(N3CCN(C(=O)C4COc5ccccc5O4)CC3)nc(N)c2cc1OC.CS(=O)(=O)O` (stereo not given) [DOXAZOSIN MESYLATE], the “Bacterial Biotransformation” value is on record as “Compound NOT metabolized”.
On the same count and under the same terms, to `N#Cc1ccc(C(c2ccc(C#N)cc2)n2cncn2)cc1` [LETROZOLE] belongs “Compound NOT metabolized”.

The next series is described as follows: The drug is tested on Bacteroides ovatus strain: ATCC8483 for biotransformation. The drug concentrations were measured before and after a 12-h incubation by liquid-chromatography-coupled mass spectrometry (LC–MS). The settings on record: 2 µM.
Turning to `COc1cc2nc(N3CCN(C(=O)C4COc5ccccc5O4)CC3)nc(N)c2cc1OC.CS(=O)(=O)O` (stereo not given) [DOXAZOSIN MESYLATE], the “Bacterial Biotransformation” value is “Compound NOT metabolized”.
Still for that read-out and setting: under `N#Cc1ccc(C(c2ccc(C#N)cc2)n2cncn2)cc1` [LETROZOLE] stands “Compound NOT metabolized”.

A further series in a line: The drug is tested on Subdoligranulum variabile strain: DSM15176 for biotransformation. The drug concentrations were measured before and after a 12-h incubation by liquid-chromatography-coupled mass spectrometry (LC–MS). The settings on record: 2 µM.
As to `COc1cc2nc(N3CCN(C(=O)C4COc5ccccc5O4)CC3)nc(N)c2cc1OC.CS(=O)(=O)O` (stereo not given) [DOXAZOSIN MESYLATE], the “Bacterial Biotransformation” value is listed as “Compound NOT metabolized”.
`N#Cc1ccc(C(c2ccc(C#N)cc2)n2cncn2)cc1` [LETROZOLE]: the “Bacterial Biotransformation” value is on record as “Compound NOT metabolized”.

A short description of a further series: The drug is tested on Bacteroides fragilis strain: ATCC43859 for biotransformation. The drug concentrations were measured before and after a 12-h incubation by liquid-chromatography-coupled mass spectrometry (LC–MS). The settings on record: 2 µM.
Turning to `COc1cc2nc(N3CCN(C(=O)C4COc5ccccc5O4)CC3)nc(N)c2cc1OC.CS(=O)(=O)O` (stereo not given) [DOXAZOSIN MESYLATE], the “Bacterial Biotransformation” value is given as “Compound NOT metabolized”.
Turning to `N#Cc1ccc(C(c2ccc(C#N)cc2)n2cncn2)cc1` [LETROZOLE], the “Bacterial Biotransformation” value is listed as “Compound NOT metabolized”.

The next series in a line: The drug is tested on Blautia luti strain: DSM14534 for biotransformation. The drug concentrations were measured before and after a 12-h incubation by liquid-chromatography-coupled mass spectrometry (LC–MS). Details: dose 2 uM, timepoint 0 vs 12 hours. In kind it is ADME. The settings on record: 2 µM.
Turning to `COc1cc2nc(N3CCN(C(=O)C4COc5ccccc5O4)CC3)nc(N)c2cc1OC.CS(=O)(=O)O` (stereo not given) [DOXAZOSIN MESYLATE], the “Bacterial Biotransformation” value is given as “Compound NOT metabolized”.
On the same count and under the same terms, to `N#Cc1ccc(C(c2ccc(C#N)cc2)n2cncn2)cc1` [LETROZOLE] belongs “Compound NOT metabolized”.

Another series in a line: The drug is tested on Edwardsiella tarda strain: ATCC23685 for biotransformation. The drug concentrations were measured before and after a 12-h incubation by liquid-chromatography-coupled mass spectrometry (LC–MS). The settings on record: 2 µM.
For `COc1cc2nc(N3CCN(C(=O)C4COc5ccccc5O4)CC3)nc(N)c2cc1OC.CS(=O)(=O)O` (stereo not given) [DOXAZOSIN MESYLATE], the “Bacterial Biotransformation” value was “Compound NOT metabolized”.
Take `N#Cc1ccc(C(c2ccc(C#N)cc2)n2cncn2)cc1` [LETROZOLE]: the “Bacterial Biotransformation” value is recorded as “Compound NOT metabolized”.

Another series can be described thus: The drug is tested on Bacteroides fragilis strain: HMW610 for biotransformation. The drug concentrations were measured before and after a 12-h incubation by liquid-chromatography-coupled mass spectrometry (LC–MS). To be noted: 2 µM.
Consider `COc1cc2nc(N3CCN(C(=O)C4COc5ccccc5O4)CC3)nc(N)c2cc1OC.CS(=O)(=O)O` (stereo not given) [DOXAZOSIN MESYLATE], for which the “Bacterial Biotransformation” value is “Compound NOT metabolized”.
In the case of `N#Cc1ccc(C(c2ccc(C#N)cc2)n2cncn2)cc1` [LETROZOLE], the “Bacterial Biotransformation” value is given as “Compound NOT metabolized”.

A further series can be described thus: The drug is tested on Bacteroides pectinophilus strain: ATCC43243 for biotransformation. The drug concentrations were measured before and after a 12-h incubation by liquid-chromatography-coupled mass spectrometry (LC–MS). The settings on record: 2 µM.
Consider `COc1cc2nc(N3CCN(C(=O)C4COc5ccccc5O4)CC3)nc(N)c2cc1OC.CS(=O)(=O)O` (stereo not given) [DOXAZOSIN MESYLATE], for which the “Bacterial Biotransformation” value was “Compound NOT metabolized”.
As to `N#Cc1ccc(C(c2ccc(C#N)cc2)n2cncn2)cc1` [LETROZOLE], the “Bacterial Biotransformation” value was “Compound NOT metabolized”.

The next series can be described thus: The drug is tested on Alistipes indistinctus strain: DSM22520 for biotransformation. The drug concentrations were measured before and after a 12-h incubation by liquid-chromatography-coupled mass spectrometry (LC–MS). To be noted: 2 µM.
Regarding `COc1cc2nc(N3CCN(C(=O)C4COc5ccccc5O4)CC3)nc(N)c2cc1OC.CS(=O)(=O)O` (stereo not given) [DOXAZOSIN MESYLATE], the “Bacterial Biotransformation” value was “Compound metabolized”.
On the same count and under the same terms, to `N#Cc1ccc(C(c2ccc(C#N)cc2)n2cncn2)cc1` [LETROZOLE] belongs “Compound NOT metabolized”.

For a further series the following is noted: bacteroides stercoris, 12 h, 2 µM.
Description: The drug is tested on Bacteroides stercoris strain: ATCC43183 for biotransformation. The drug concentrations were measured before and after a 12-h incubation by liquid-chromatography-coupled mass spectrometry (LC–MS)
As to `COc1cc2nc(N3CCN(C(=O)C4COc5ccccc5O4)CC3)nc(N)c2cc1OC.CS(=O)(=O)O` (stereo not given) [DOXAZOSIN MESYLATE], the “Bacterial Biotransformation” value was “Compound NOT metabolized”.
On the same count and under the same terms, under `N#Cc1ccc(C(c2ccc(C#N)cc2)n2cncn2)cc1` [LETROZOLE] stands “Compound NOT metabolized”.
